Results on six compounds are retold here after ChEMBL document CHEMBL1201862, “PubChem BioAssay data set” (2004).

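Results reflect a 48-hour exposure of cells in 96-well plates to compound at five concentrations. GI50 marks 50% less growth.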 Calls of active or inactive are those of the source. Cut-off read from the data, not from the text of the source: active = GI50 up to about 1.1 µM and inactive = higher. Some results are limits rather than exact numbers.

What all share (experiment): NCI-60 cell line screen, 48 h
In assay [1] the test system is SNB-19.
Assay [2] has as its system EKVX.
Assay [3] has as its system PC-3.
Assay [4] deals with SK-MEL-5.
In assay [5] the test system is A498.
Assay [6] has as its system NCI-H460.
Assay [7] deals with TK-10.
Assay [8] has as its system HCT-15.
In assay [9] the test system is T47D.
Assay [10] relates to DU-145.
For assay [11], the system named is OVCAR-4.
The subject of assay [12] is OVCAR-8.
Assay [13] has as its system M14.
Assay [14] has as its system UACC-62.
The subject of assay [15] is SF-295.
The test system of assay [16] is SW-620.
In assay [17] the test system is M19-MEL.
Assay [18] has as its system SF-268.
Assay [19] deals with COLO 205.
Assay [20] deals with HT-29.

Regarding `Cn1c2ccccc2c2cc(-c3ccccc3)c3c(c21)C(=O)C=CC3=O`, the GI50 in assay [1] is 36.6 µM (inactive); in [2], 39.7 µM (inactive); in [3] it was 18.4 µM (inactive); in [4], 28.3 µM (inactive); in [5], 22.5 µM (inactive); in [6], 20.6 µM (inactive). The GI50 was 17.1 µM (inactive) in assay [7]; 15.2 µM in assay [8]; 9.55 µM (inactive) in [9]; 82.8 µM (inactive) in assay [10]; 18.8 µM (inactive) in [11]; 30.3 µM (inactive) in [12]. Further, the GI50 in assay [13] was 21.1 µM (inactive); in assay [14] it was 19.3 µM (inactive); in assay [15], 24 µM (inactive); in [16], 9.48 µM (inactive); in assay [17], 20.1 µM (inactive); in assay [18], 28.4 µM (inactive). In addition, the GI50 in assay [19] and in assay [20] was 17.5 µM (inactive) throughout.
With `C=C(C)C(O)CCC1(C)C=Cc2c(c(C)cc3c2[nH]c2ccccc23)O1` (configuration not stated), the GI50 was 15.2 µM (inactive) in assay [1]; 6.55 µM (inactive) in assay [3]; 7.62 µM (inactive) in [4]; 13.6 µM (inactive) in [5]; 5.42 µM (inactive) in assay [6]; > 25 µM (inactive) in assay [7]. The GI50 was 4.26 µM in assay [8]; 7.83 µM (inactive) in assay [9]; 12.6 µM (inactive) in assay [10]; 16.5 µM (inactive) in [11]; 9.08 µM (inactive) in [12]; 5.05 µM (inactive) in assay [13]. The GI50 was 4.8 µM (inactive) in [14]; 4.34 µM (inactive) in assay [15]; 4.48 µM (inactive) in assay [16]; 13.2 µM (inactive) in assay [17]; 9.93 µM (inactive) in assay [18]; 4.65 µM (inactive) in assay [19]. Besides, the GI50 in [20] was 4.72 µM (inactive).
Take `COc1ccc(C[C@@H]2NC[C@@H](O)[C@@H]2OC(C)=O)cc1`: the GI50 was 0.0228 µM (active) in [1]; 0.0475 µM (active) in assay [2]; 0.0196 µM (active) in assay [3]; 0.0104 µM (active) in assay [4]; 0.0157 µM (active) in assay [5]; 0.0142 µM (active) in assay [6]. Moreover, the GI50 in assay [7] was 0.0312 µM (active); in assay [8], 0.0171 µM; in assay [9], 0.0227 µM (active); in [10], 0.0191 µM (active); in assay [11] it was 0.00957 µM (active); in assay [12], 0.0189 µM (active). Also, the GI50 is 0.0185 µM (active) in assay [13]; 0.015 µM (active) in [14]; 0.0253 µM (active) in assay [15]; 0.0166 µM (active) in assay [16]; 1.79 µM (inactive) in assay [17]; 0.0232 µM (active) in assay [18]. For the same compound, the results for the GI50 in [19] and in assay [20] were 0.0102 µM (active) and 0.0197 µM (active), respectively.
For the compound `CC(O)CCCOC(c1ccccc1)(c1ccccc1)c1ccccc1` (configuration not stated), the GI50 was 16 µM (inactive) in [1]; 14.8 µM (inactive) in assay [2]; 11.5 µM (inactive) in assay [3]; 11.8 µM (inactive) in assay [4]; 20.1 µM (inactive) in assay [5]; 16.1 µM (inactive) in [6]. For the same compound, the GI50 in assay [7] was 16.6 µM (inactive); in assay [8] it was 15.4 µM; in [10], 16.6 µM (inactive); in assay [11], 14.8 µM (inactive); in assay [12] it was 14.7 µM (inactive); in [13] it was 15.5 µM (inactive). Moreover, the GI50 in assay [14] was 13.9 µM (inactive); in assay [15], 13.8 µM (inactive); in assay [16] it was 16.6 µM (inactive); in assay [17], 17 µM (inactive); in [18] it was 15.9 µM (inactive); in assay [19], 20.1 µM (inactive). Moreover, the GI50 in [20] was 13.2 µM (inactive).
For the compound `O=C(/C=C/c1ccccc1)CC(=O)CCC(=O)Nc1ccc(Cl)cc1`, the GI50 in [1] is > 100 µM (inactive); in [2] it was > 100 µM (inactive); in assay [4], > 100 µM (inactive); in assay [5] it was > 100 µM (inactive); in assay [6], 55.6 µM (inactive); in assay [7], > 100 µM (inactive). Besides, the GI50 was over 100 µM in [8]; > 100 µM (inactive) in [11]; > 100 µM (inactive) in assay [12]; 28.3 µM (inactive) in assay [13]; 2.69 µM (inactive) in [14]; > 100 µM (inactive) in assay [15]. Moreover, the GI50 is > 100 µM (inactive) in assay [16]; 71 µM (inactive) in assay [17]; 60.3 µM (inactive) in assay [18]; > 100 µM (inactive) in [19]; 88.9 µM (inactive) in [20].
On to `CCC(C)(O)c1cn(-c2ccc(S(=O)(=O)O)cc2)nn1` (configuration not stated), for which the GI50 in [1], in assay [2], in [4], in assay [5], in assay [6] and in assay [7] was > 100 µM (inactive) each time. In addition, the GI50 in [8] is over 100 µM; in assay [11], > 100 µM (inactive); in [12], > 100 µM (inactive); in assay [13], > 100 µM (inactive); in [14], > 100 µM (inactive); in assay [15] it was > 100 µM (inactive). For the same compound, the GI50 in assay [16], in assay [17], in [18], in assay [19] and in assay [20] was > 100 µM (inactive) throughout.
